Earlier results, collected in US8642630B2, “Endogeneous repair factor production accelerators” (Ono Pharmaceutical Co., Ltd., priority 2002, dated 2014).
Counter-ions that a name gives are not always drawn.

System: vascular endothelial cells
Details: cited from earlier work

CC#CCC(C)[C@H](O)/C=C/[C@@H]1[C@H]2c3cccc(CCCC(=O)O)c3O[C@H]2C[C@H]1O (mixture of isomers) [Beraprost, (±)-(1R,2R,3aS,8bS)-2,3,3a,8b-terahydro-2-hydroxy-1-[(E)-(3S,4RS)-3-hydroxy-4-methyl-1-octen-6-ynyl]-1H-cyclopenta[b]benzofuran-5-butanoic acid sodium salt]
endothelial cell growth action, in words (in vitro): shows endothelial cell growth action | HGF production, in words (vascular endothelial cells in vitro): increases HGF production in vascular endothelial cells in vitro
